Assay results: paper doi:10.1101/2022.03.02.482641v1 (biorxiv, 2022)

Legend:
Type in all cases: biochemical
[1] = target: T1, zfSARM1 (zebrafish SARM1, zfSARM1 w.t.) (Danio rerio, UniProt F1QWA8); assay: NADase kinetics, HPLC, substrate inhibition fit; details: apparent substrate inhibition by NAD+
T1 sequence (F1QWA8 22-713): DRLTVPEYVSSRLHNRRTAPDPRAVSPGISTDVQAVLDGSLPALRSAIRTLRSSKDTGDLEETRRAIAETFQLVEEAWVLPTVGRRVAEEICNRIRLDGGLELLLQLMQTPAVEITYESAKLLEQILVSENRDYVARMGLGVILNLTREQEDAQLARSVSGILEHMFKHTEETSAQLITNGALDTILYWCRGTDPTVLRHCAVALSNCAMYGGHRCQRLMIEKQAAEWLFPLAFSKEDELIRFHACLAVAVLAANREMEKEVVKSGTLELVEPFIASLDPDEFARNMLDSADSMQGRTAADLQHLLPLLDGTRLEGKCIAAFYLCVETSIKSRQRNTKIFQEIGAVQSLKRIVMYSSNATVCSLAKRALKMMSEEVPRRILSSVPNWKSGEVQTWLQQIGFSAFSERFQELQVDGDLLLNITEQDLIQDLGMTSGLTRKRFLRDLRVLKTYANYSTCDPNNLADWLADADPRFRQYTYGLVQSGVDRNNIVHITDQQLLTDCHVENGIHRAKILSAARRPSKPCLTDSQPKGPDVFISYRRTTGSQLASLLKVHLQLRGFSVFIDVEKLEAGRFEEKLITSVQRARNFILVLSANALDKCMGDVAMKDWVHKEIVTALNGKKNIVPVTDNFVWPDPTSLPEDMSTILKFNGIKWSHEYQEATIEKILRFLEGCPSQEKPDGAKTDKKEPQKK

[2] = target: T2, hSARM1 (hSARM1 w.t., near-intact, 26ERL...GPT724) (Homo sapiens, UniProt Q6SZW1); assay: NADase kinetics, HPLC, substrate inhibition fit; details: apparent substrate inhibition by NAD+
T2 sequence (Q6SZW1 26-724): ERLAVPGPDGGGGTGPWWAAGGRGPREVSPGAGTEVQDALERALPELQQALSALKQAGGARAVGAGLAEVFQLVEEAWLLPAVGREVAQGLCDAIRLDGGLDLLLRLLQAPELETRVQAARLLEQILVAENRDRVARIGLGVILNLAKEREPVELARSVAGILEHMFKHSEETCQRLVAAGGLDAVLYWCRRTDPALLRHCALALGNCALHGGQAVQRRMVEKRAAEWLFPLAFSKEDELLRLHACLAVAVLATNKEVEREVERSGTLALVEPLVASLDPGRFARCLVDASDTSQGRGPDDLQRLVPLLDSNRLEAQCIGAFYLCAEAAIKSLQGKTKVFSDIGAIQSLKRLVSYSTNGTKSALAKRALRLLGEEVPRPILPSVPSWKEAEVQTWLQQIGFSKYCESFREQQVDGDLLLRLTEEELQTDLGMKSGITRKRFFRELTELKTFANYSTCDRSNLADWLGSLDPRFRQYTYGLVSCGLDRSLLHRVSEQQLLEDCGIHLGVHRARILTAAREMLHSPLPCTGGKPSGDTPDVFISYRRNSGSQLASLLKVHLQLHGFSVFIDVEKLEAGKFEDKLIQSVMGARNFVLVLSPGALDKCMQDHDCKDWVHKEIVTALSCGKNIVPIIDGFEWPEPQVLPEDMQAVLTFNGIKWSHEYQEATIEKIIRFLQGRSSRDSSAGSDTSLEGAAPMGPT

[3] = target: T1, zfSARM1 (zebrafish SARM1, zfSARM1 w.t.); assay: HPLC of ADPR formation
[4] = target: T2, hSARM1 (hSARM1 w.t., near-intact, 26ERL...GPT724); assay: HPLC of ADPR formation

Compound | Ki [1] | Ki [2] | EC50 [3] | IC50 [4]
NC(=O)c1ccc[n+]([C@@H]2O[C@H](COP(=O)([O-])OP(=O)(O)OC[C@H]3O[C@@H](n4cnc5c(N)ncnc54)[C@H](O)[C@@H]3O)[C@@H](O)[C@H]2O)c1 [NAD+] | 1350 µM | 727 µM | – | –
N#Cc1c(O)nsc1Nc1ccccc1C(F)(F)F [TK138] | – | – | 2.7 µM | 2.9 µM
CCOC(=O)Cn1sc2nc(C)cc(C)c2c1=O [TK142] | – | – | – | 1.8 µM

Other lines, results leading:

Ki [1] | Ki [2] | EC50 [3] | IC50 [4] | Compound
– | – | – | 4.6 µM | Cn1c(=O)c(I)c(O)c2ccccc21 [TK210]
– | – | – | 3.2 µM | O=c1[nH]sc2ccccc12 [TK222]
